In assay [1] the target is T1, human COX-3a (Homo sapiens, UniProt P23219).
T1 construct: the full length human COX-3a cDNA was subcloned into pFastBac; made in house; host or cells: Sf9 insect cells (baculovirus, pFastBac); microsomal fraction
Briefly: COX activity assay: PGF2α formation from arachidonic acid by microsomes of Sf9 cells expressing hCOX-3a. The assay is classed as biochemical. The following applies: synthesis of PGF2α from arachidonic acid; 20 μg microsomal membrane protein, room temperature, 5 minutes, pH 8.0. The procedure: Microsomal protein fractions were prepared from Sf9 cells infected with the hCOX-3a recombinant baculovirus. Microsomal membrane protein (20 μg) was incubated with the indicated concentration of arachidonic acid in a volume of 150 μl buffer containing 0.1 M Tris-HCl (pH=8.0), 5 mM EDTA, 2 mM phenol and 1.5 μM […]. After incubating at room temperature for 5 minutes, the reaction was terminated by the addition of 40 μl of 1 N HCl with mixing. Samples were neutralized with 40 μl of 1 N NaOH. The formation of the PGF2α product was determined using a PGF2α immunoassay kit (Assay Designs, Inc.), as directed by the manufacturer.

Assay [2] deals with T2, dog COX-3 (Canis lupus familiaris, UniProt Q8HZR1).
T2 sequence (Q8HZR1 1-633 isoform Q8HZR1-2): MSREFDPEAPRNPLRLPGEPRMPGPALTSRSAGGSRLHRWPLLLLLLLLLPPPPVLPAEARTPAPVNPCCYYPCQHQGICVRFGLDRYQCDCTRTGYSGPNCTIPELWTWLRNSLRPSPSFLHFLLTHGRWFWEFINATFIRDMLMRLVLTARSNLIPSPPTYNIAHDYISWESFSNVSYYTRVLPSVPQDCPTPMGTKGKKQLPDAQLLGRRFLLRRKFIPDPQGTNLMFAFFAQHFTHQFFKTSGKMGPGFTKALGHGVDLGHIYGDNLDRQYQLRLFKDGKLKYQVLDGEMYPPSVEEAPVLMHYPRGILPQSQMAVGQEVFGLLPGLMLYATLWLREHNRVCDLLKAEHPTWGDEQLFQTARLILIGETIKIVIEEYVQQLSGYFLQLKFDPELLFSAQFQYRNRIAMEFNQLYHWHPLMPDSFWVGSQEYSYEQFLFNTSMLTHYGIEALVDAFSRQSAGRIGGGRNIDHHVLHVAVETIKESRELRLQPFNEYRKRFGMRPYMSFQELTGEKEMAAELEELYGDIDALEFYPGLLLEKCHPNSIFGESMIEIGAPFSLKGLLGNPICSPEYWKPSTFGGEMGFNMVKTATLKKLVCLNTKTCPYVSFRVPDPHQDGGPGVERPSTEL
Particulars: cited from earlier work.

Assay [3] deals with ovarian cancer. The following applies: women who reported taking acetaminophen daily; prospective study; cited from earlier work.
Setting [4] is: substrate concentration of 5 mM.

Data on five compounds can be found in patent US7517676B2, “Human cyclooxygenase-3 enzyme and uses thereof” (Janssen Pharmaceutica N.V., priority 2003, dated 2009).

T1 sequence (P23219 1-630 isoform P23219-6): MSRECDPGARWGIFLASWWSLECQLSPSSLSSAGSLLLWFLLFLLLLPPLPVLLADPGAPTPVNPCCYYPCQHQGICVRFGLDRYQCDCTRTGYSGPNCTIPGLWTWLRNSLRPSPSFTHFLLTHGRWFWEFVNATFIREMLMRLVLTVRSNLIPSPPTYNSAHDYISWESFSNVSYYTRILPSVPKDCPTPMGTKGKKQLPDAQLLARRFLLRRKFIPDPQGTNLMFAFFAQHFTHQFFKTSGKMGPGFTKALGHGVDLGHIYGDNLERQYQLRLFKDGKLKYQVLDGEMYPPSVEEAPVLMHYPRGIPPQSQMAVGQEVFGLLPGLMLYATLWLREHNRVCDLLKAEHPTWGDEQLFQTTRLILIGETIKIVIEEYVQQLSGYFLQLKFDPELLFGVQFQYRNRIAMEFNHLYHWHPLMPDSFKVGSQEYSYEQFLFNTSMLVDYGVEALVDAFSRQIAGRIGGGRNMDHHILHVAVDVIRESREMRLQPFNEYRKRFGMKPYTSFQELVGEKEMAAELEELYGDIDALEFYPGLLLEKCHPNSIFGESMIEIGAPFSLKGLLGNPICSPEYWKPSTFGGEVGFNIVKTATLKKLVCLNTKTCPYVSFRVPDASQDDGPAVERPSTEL

In the case of `CCCCC/C=C\C/C=C\C/C=C\C/C=C\CCCC(=O)O` [arachidonic acid], in assay [1], the Km was determined as 540 nM and the Vmax amounted to 3.07 pmol/mg/min. Turning to `CCOc1ccc(NC(C)=O)cc1` [phenacetin], in assay [2], the “inhibition of dog COX-3 compared with murine COX-1 and -2” value is on record as “selectively inhibited”.

In the case of `CC(=O)Nc1ccc(O)cc1` [acetaminophen], in assay [3], the “lower death rate from ovarian cancer than women reporting no use” value was 45%. For the same compound, the “inhibition of dog COX-3 compared with murine COX-1 and -2” value in assay [2] is “selectively inhibited”. Also, in assay [2] (setting [4]), the “selectivity for inhibition of dog COX-3 versus murine COX-1” value is 2 fold and the “selectivity for inhibition of dog COX-3 versus murine COX-2” value was 100 fold. For `Cc1c(N(C)CS(=O)(=O)[O-])c(=O)n(-c2ccccc2)n1C.[Na+]` [dipyrone], the “inhibition of dog COX-3 compared with murine COX-1 and -2” value in assay [2] is “selectively inhibited”.

For `Cc1cc(=O)n(-c2ccccc2)n1C` [antipyrine], the “inhibition of dog COX-3 compared with murine COX-1 and -2” value in assay [2] was “selectively inhibited”.

What is called Km is the substrate concentration at which the rate is half of its maximum. The Vmax is the top rate of the reaction or transport when substrate is in excess.
